The record followed here is ChEMBL document CHEMBL1136064, “The synthesis and characterization of BMS-204352 (MaxiPost) and related 3-fluorooxindoles as openers of maxi-K potassium channels” (Bioorg Med Chem Lett, 2002).

Values joined by “and” are separate entries in the source; they are usually repeats but may differ in a detail not shown here. Equal entries are not always repeated.

For data set [1], the system named is HEK293. Nature of the data set: Tested for the effect on whole cell maxi-K current in HEK 293 cells at 100 nM. It counts as functional, Homo sapiens. Details: unit not given here.
For data set [2], the target named is Calcium-activated potassium channel subunit alpha-1 KCNMA1 (Homo sapiens) (UniProt Q12791). Kind of data set: Evaluation of maxi-K opening in Xenopus laevis oocytes injected with Hslo1 channels as percent of control current at 20 uM. The following applies: Oocyte.
Data set [3] has the same target. Kind of data set: Evaluation of maxi-K opening in Xenopus laevis oocytes injected with Hslo1 channels as percent of control current at a concentration of 20 uM. The following applies: Oocyte.
The test system of data set [4] is HEK293. Nature of the data set: Tested for the effect on whole cell maxi-K current in HEK 293 cells at 1000 nM. The data set is classed as functional, Homo sapiens.
In data set [5] the test system is HEK293. Kind of data set: Tested for the effect on whole cell maxi-K current in HEK 293 cells at 10 nM. The data set is classed as functional, Homo sapiens.
Data set [6] in a line: Ratio of brain AUC versus plasma AUC. The data set is classed as ADME, cell-free. The following applies: rat.
A short description of data set [7]: Evaluated for AUC after iv administration of 5 mg/kg to male Sprague-Dawley rats in plasma. The data set is classed as ADME, organism-based. Details: dose 5 mg/kg, route intravenous. The following applies: rat.
The nature of data set [8]: Evaluated for Volume of distribution after iv administration of 5 mg/kg to male Sprague-Dawley rats. The data set is classed as ADME, organism-based. Set-up: dose 5 mg/kg, route intravenous. Conditions: rat, in vivo, read-out: Volume of distribution.
The nature of data set [9]: Evaluated for half-life after iv administration of 1 mg/kg to male Sprague-Dawley rats in plasma. It counts as ADME, organism-based. Set-up: dose 1 mg/kg, route intravenous. The following applies: rat.
The nature of data set [10]: Evaluated for AUC after iv administration of 1 mg/kg to male Sprague-Dawley rats in plasma. The data set is classed as ADME, organism-based. Details: dose 1 mg/kg, route intravenous. The following applies: rat.
The nature of data set [11]: Evaluated for plasma clearance after iv administration of 5 mg/kg to male Sprague-Dawley rats. The following applies: rat. Details: dose 5 mg/kg, route intravenous. It counts as ADME, organism-based.
Data set [12] can be described thus: Evaluated for AUC after iv administration of 5 mg/kg to male Sprague-Dawley rats in brain. It counts as ADME, organism-based. Set-up: dose 5 mg/kg, route intravenous. Conditions: rat.
Data set [13] can be described thus: Evaluated for half-life after iv administration of 5 mg/kg to male Sprague-Dawley rats in plasma. Conditions: rat. It counts as ADME, organism-based. Details: dose 5 mg/kg, route intravenous.
Data set [14] is described as follows: Evaluated for half-life after iv administration of 5 mg/kg to male Sprague-Dawley rats in brain. It counts as ADME, organism-based. Conditions: rat. Set-up: dose 5 mg/kg, route intravenous.

Calcium-activated potassium channel subunit alpha-1 KCNMA1 (Homo sapiens), sequence (Q12791 whole entry, looked up): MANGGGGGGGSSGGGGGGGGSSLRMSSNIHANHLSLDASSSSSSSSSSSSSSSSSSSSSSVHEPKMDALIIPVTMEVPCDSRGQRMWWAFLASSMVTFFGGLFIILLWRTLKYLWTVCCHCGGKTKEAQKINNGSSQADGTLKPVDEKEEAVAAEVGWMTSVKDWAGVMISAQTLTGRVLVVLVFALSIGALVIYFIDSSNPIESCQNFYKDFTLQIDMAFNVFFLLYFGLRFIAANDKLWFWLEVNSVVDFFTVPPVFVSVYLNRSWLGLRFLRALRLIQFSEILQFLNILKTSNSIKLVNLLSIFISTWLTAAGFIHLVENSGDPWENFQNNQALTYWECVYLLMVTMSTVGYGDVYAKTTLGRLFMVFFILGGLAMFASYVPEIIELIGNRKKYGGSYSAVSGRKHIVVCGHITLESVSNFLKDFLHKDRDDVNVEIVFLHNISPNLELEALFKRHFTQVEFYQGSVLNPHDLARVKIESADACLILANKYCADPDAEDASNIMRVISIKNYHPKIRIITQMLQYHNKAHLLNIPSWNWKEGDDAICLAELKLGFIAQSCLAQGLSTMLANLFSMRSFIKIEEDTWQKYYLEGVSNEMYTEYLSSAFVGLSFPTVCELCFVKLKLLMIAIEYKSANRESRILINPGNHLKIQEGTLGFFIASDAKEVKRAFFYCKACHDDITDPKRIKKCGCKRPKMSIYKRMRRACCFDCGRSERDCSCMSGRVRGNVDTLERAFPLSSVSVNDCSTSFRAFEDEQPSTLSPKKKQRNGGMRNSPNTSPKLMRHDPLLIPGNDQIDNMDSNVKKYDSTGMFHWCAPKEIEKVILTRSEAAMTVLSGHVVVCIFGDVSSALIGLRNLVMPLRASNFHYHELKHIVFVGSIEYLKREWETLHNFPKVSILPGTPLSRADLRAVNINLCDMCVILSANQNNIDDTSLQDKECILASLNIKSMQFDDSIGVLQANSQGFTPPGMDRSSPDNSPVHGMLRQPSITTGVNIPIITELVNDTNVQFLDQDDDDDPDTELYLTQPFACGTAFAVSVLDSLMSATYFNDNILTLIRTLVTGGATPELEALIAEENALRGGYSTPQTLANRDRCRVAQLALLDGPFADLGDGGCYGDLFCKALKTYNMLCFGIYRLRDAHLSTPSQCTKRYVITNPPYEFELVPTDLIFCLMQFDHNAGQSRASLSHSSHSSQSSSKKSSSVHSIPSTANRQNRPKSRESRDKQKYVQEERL

Consider `COc1ccc(Cl)cc1C1(F)C(=O)Nc2c(C(F)(F)F)cccc21` (stereo not drawn), for which the Maxi-K current in the data set on HEK293 [1] was 131.9 and 169.6.

With `O=C1Nc2ccccc2C1(F)c1ccccc1` (stereo not drawn), in data set [2], the remaining activity at 20 µM turned out to be 100%.

With `O=C1Nc2cc(C(F)(F)F)ccc2C1(F)c1ccccc1` (stereo not drawn), the remaining activity at 20 µM in data set [3] was 107%.

Turning to `COc1ccc(Cl)cc1[C@@]1(F)C(=O)Nc2cc(C(F)(F)F)ccc21`, the Maxi-K current in the data set with HEK293 [4] was found to be 205.3; in the data set on HEK293 [5], 105; with HEK293 [1] it was 164.4.

Take `COc1ccc(Cl)cc1[C@]1(F)C(=O)Nc2cc(C(F)(F)F)ccc21` [FLINDOKALNER]: the Kp (in general, the ratio of the level in a tissue or fluid to that in plasma or blood) in data set [6] was determined as 9.6. Moreover, the results for the Maxi-K current in the data set on HEK293 [4], in the data set with HEK293 [5] and in the data set on HEK293 [1] were 247.4, 127.8 and 185.3, respectively. The AUC (as a rule, the area under the concentration-time curve, a measure of exposure) in data set [7] is 3000 ng·h/mL; in data set [10] it was 320 ng·h/mL; in [12], 28800 ng·h/mL. In data set [8], the Vd was 5.8 L/kg. The figures for the half-life in data set [9], in [13] and in data set [14] were 1.8 h, 1.9 h and 1.6 h, respectively. Moreover, the clearance (usually the rate of elimination divided by the concentration) in [11] stood at 51.5 mL/min/kg.
